Results reported in patent publication US20190060239A1, “Technology for the Preparation of Microparticles” (Ansun Biopharma, Inc., priority 2007, published 2019).

Columns and labels:
[1] = Microsphere quality score by light microscopy (scoring system of Table 13); format: physicochemical; conditions: for Microsphere Quality: compound 2 mg/ml
Procedure: For each of the compounds listed in A-D above, and for DAS181, cocktail solutions containing 2 mg/ml of compound dissolved in an aqueous solvent and various counterions, antisolvents and pH, as listed below, were prepared in a 96-well microtiter plate (0.1 ml cocktail/well) at room temperature. Control solutions contained either solvent or antisolvent alone, with or without the counterion. Cocktails were cooled by placing in a freezer. The chilled plates were transferred onto pre-chilled (−45° C.) shelves of a Millrock Lab Series Lyophilizer, and the vacuum was applied. The frozen cocktail solutions were allowed to lyophilize for 16 hours.
The lyophilized powders from the bottoms of the wells were transferred onto glass slides and analyzed by light microscopy for appearance. The quality of the product microspheres was scored based on the uniformity of the microspheres, the absence of undesirable non-microsphere particles (glass-like crystalline forms), and the absence of aggregates.
Arginine was used as counterion and isopropanol was used as antisolvent. Concentrations of each of the cocktail components—the compound, the counterion and the antisolvent—were varied as shown below in Table 15, and the effect on microsphere quality assessed.
Experiments were performed to evaluate the effect of antisolvent and counterion concentration variation on the formation of microspheres. The peptides leuprolide and somatostatin, and the antibiotics vancomycin and tobramycin, were tested under a variety of conditions for forming microspheres. Samples were analyzed in 96-well plates as described in the previous Examples.
The experiments were performed using PGI2 and an analog of PGI2, Ciprostene, at a concentration of 2 mg/ml. Cocktail solutions were mixed at room temperature, then cooled by placing in a freezer. The chilled plates were transferred onto pre-chilled (−45° C.) shelves of a Millrock Lab Series Lyophilizer, and the vacuum was applied. The frozen cocktail solutions were allowed to lyophilize for 16 hours.
Because the resulting prostaglandin microspheres are hygroscopic, upon microsphere initiation, the humidity was maintained at low levels during the experiments, using a nitrogen gas tank attached to the backfill system on the lyophilizer. Each of the reaction tubes was flushed with N2. In addition, the backfill valve on the lyophilizer was left open to continually flush a low humidity atmosphere over the samples. The microscope used to visualize the resulting microspheres was contained within a plastic bag that was continually purged with dry N2. Sample tubes were placed under the bag to equilibrate for approximately 30 seconds, before opening and spreading onto the glass slide.
The compound/counterion/antisolvent conditions were as follows:
Experiments were performed with 200 μl of each of the above cocktail solutions in a 2 ml lyophilization bottle (first flash freeze condition), and 25 μl of each of the above cocktail solutions in a PCR tube (second flash freeze condition). The samples in the lyophilization bottles took approximately 15 seconds to freeze. The samples in the PCR tubes took approximately 3 seconds or less to freeze.
The cocktails in the 96-well plates were cooled by placing in a freezer. The chilled plates were transferred onto pre-chilled (−45° C.) shelves of a Millrock Lab Series Lyophilizer, and a vacuum was applied. The frozen cocktail solutions were allowed to lyophilize for 16 hours.
The lyophilized powders from the bottoms of the wells were transferred onto glass slides and analyzed by light microscopy for appearance.

[2] = Microsphere formation, size and appearance by light microscopy; format: physicochemical; conditions: 2 mg/ml paclitaxel; isopropanol, t-butanol or DMSO with 2 mM Na-citrate buffer pH 5.0
[3] = Bombuwala et. al., Beilstein J. Org. Chem. 2006, 2:13; cited from earlier work
[4] = cited from earlier work

Microsphere Quality ([1]; 2 mM Arginine, pH 9, 20% n-propanol, 0% t-butanol)	Microsphere Quality ([1]; 2 mM Arginine, pH 9, 20% n-propanol, 30% t-butanol)	Microsphere Quality ([1]; 2 mM PEI, pH 10.75, 30% n-propanol, 0% t-butanol)	Microsphere Quality ([1]; 2 mM TEA, pH 11, 20% n-propanol, 0% t-butanol)	Microsphere Quality ([1]; 2 mM TEA, pH 11, 20% n-propanol, 5% t-butanol)	Microsphere Quality ([1]; 2 mM TEA, pH 11, 20% n-propanol, 55% t-butanol)	Microsphere Quality ([1]; 2 mM TEA, pH 11, 20% n-propanol, 70% t-butanol)	Microsphere Quality ([1]; 2 mM TEA, pH 11, 30% n-propanol, 0% t-butanol)	Structure (SMILES)	appearance after flash freeze ([1]; both flash freeze conditions, Paclitaxel/citrate pH 5.0/90% t-butanol)	organic solvent concentration at which paclitaxel precipitated [2]	log P (log of the octanol/water partition coefficient) [3]	solubility in water / aqueous solutions [4]	API half life ([4]; at physiological pH)
								CC(=O)O[C@H]1C(=O)[C@@]2(C)[C@H]([C@H](OC(=O)c3ccccc3)[C@]3(O)C[C@H](OC(=O)[C@H](O)[C@@H](NC(=O)c4ccccc4)c4ccccc4)C(C)=C1C3(C)C)[C@]1(OC(C)=O)CO[C@@H]1C[C@@H]2O [Paclitaxel]	mostly crystalline	≤ 25%	higher than 3		
7/8	6/7	6/7	4/5	8/7	6/7	5/6	3/4	CCCCC[C@H](O)/C=C/[C@H]1[C@H](O)C[C@]2(C)C/C(=C\CCCC(=O)O)C[C@H]12 [Ciprostene]				not highly soluble in aqueous solutions	
								CCCCC[C@H](O)/C=C/[C@@H]1[C@H]2C/C(=C/CCCC(=O)O)O[C@H]2C[C@H]1O [PGI2]				higher solubility in water	on the order of minutes
